Where “and” joins values, the source holds several entries; their conditions need not be identical. Equal values may be shown once. Read-outs that look alike come from different tables or passages of the source.
Tests used:
[1] = Biological Example 3: cytotoxicity (calcein AM), CC50; type: cell-based; details: human, Huh-7 cells carrying a HCV genotype 1a replicon; HCV genotype 1a replicon cells; calcein AM
Procedure: The HCV replicon assay was a multiplex assay which can assess both cytotoxicity and anti-replicon activity from the same well. The CC50 assay was performed first.
The cytotoxicity effect was determined by calcein AM conversion to fluorescent product. The percent cytotoxicity was calculated by equation 1:
(§1) [formula] where XC is the fluorescence signal from the compound-treated well; MB is the average fluorescence signal from puromycin-treated wells; MD is the average fluorescence signal from DMSO-treated wells. The anti-HCV replication activity was determined by the luminescence signal generated from the reporter renilla luciferase of the HCV replicon. The percent inhibition on HCV replicon was calculated using equation 1, where XC is the luminescence signal from compound-treated well; MB is average luminescence signal from the ITMN-191-treated wells; MD is the average luminescence signal from DMSO-treated wells.
(§2) Both CC50 and EC50 values were obtained using Pipeline Pilot 5.0 software package (Accelrys, San Diego, Calif.) by nonlinear regression fitting of experimental data to equation 2: […]

[2] = test system: Huh-7 cells carrying a HCV genotype 1a replicon; assay: Biological Example 3: cytotoxicity in combination studies (MacSynergy II); details: in combination with Ribavirin
[3] = test system: GT1b and GT1a mutant replicons; assay: Biological Example 8: summary of cross resistance of mutant replicons; type: cell-based, HCV
Procedure: (§3) GT1b and GT1a replicons carrying Renilla Luciferase reporter were used to generate the mutant replicons. The mutations were introduced into the replicon construct by site-directed mutagenesis and confirmed by sequencing. Mutant replicon RNAs were generated from DNA by in vitro transcription and transfected into Huh-7 Lunet or C1 cells
(§4) Compounds were serially diluted 1:3 in 100% DMSO (Sigma). These serial dilutions were added to the cells at a 1:200 dilution to achieve a final concentration of 0.5% DMSO in a total volume of 200 μL. […] EC50 values were calculated using Prism.
(§5) For comparison, a fold change of 0-3 is considered “sensitive”, a fold change of 3-10 is considered “low”, a fold change of 10-50 is considered “medium” and a fold change of greater than […] is considered “high”.

[4] = test system: NS3 GT1a mutant replicons; type: cell-based, HCV
Procedure: as §3, §4, §5

[5] = test system: NS3 GT1b mutant replicons; type: cell-based, HCV
Procedure: as §3, §4, §5

[6] = test system: Genotype 1b replicon cells; assay: Biological Example 6: compound concentration required to suppress replicon RNA by 1-1.5 log over 6 days (QRT-PCR); type: cell-based, HCV; details: 6 day assay
Procedure: Flasks were incubated at 37° C., media and compounds were refreshed every two days. After 6 days of incubation the replicon cells were collected for RNA extraction and replicon RNA QRT-PCR analysis.

GT-1b Huh-lunet cells = assay: Biological Example 4: antiviral combination studies with Compound 5 (MacSynergy II); type: cell-based, HCV; details: in combination with Compound 5, 1b replicon cells
[7] = human; 800 mg/day; cited from earlier work
HCV 1b replicon system = assay: Biological Example 5: antiviral combination studies with Compound 6 (MacSynergy II); type: cell-based; details: in combination with Compound 6
HCV genotype 1a replicon [8] = assay: Biological Example 3: HCV genotype 1a replicon assay, EC50; type: cell-based; details: Hepatitis C virus, 72 h, 3 days, read-out: EC50
Procedure: The HCV genotype 1a replicon cell line used in this study was described previously. The cells were grown in cell culture medium containing Dulbecco's Modified Eagle Medium (DMEM) with GlutaMAX (Gibco, Carlsbad, Calif., Cat#10569-044), supplemented with 10% FBS (HyClone, Logan, Utah, Cat#SH30071.03), 100 Units/mL Penicillin, 100 μg/mL Streptomycin (Gibco, Carlsbad, Calif., Cat#15140-122), and 0.1 mM non-essential amino acids (Gibco, Carlsbad, Calif., Cat#11140-050). Replicon cells were maintained in 0.5 mg/mL Geneticin (Invitrogen, Carlsbad, Calif., Cat#10131-035) to prevent the loss of HCV replicon. The cells were passaged every 3-4 days before reaching confluency.
as §1, §2

HCV genotype 1a replicon [9] = assay: Biological Example 3: antiviral combination studies with Compound 4 (MacSynergy II); details: in combination with Compound 4
[10] = all single NS3 PI-resistant mutants
[11] = triple class mutants that confer resistance to PI, NS5A and Compound 1

## CC(C)OC(=O)[C@H](C)N[P@](=O)(OC[C@H]1O[C@@](C#N)(c2ccc3c(N)ncnn23)[C@](C)(O)[C@@H]1OC(=O)C(C)C)Oc1ccccc1 [Compound 4]
[1]
  CC50 at 3 days: > 44.4 µM
[2]
  Antagonism Volume (cytotoxicity): −1 ± 2 μM^2%
  Interaction (cytotoxicity): Additivity (Additivity: ≦25 and >−25 nM^2%)
  Synergy Volume (cytotoxicity): 4 ± 3 μM^2%
[3]; [10]
  susceptibility of mutants: full susceptibility
[3]; [11]
  susceptibility of mutants: susceptible
[4]; mutant A156T
  fold change in EC50 vs wild-type GT1a: 0.2 fold
[4]; mutant D168A
  fold change in EC50 vs wild-type GT1a: 0.9 fold
[4]; mutant D168E
  fold change in EC50 vs wild-type GT1a: 1.5 fold
[4]; mutant D168G
  fold change in EC50 vs wild-type GT1a: 0.8 fold
[4]; mutant D168H
  fold change in EC50 vs wild-type GT1a: 1.0 fold
[4]; mutant D168N
  fold change in EC50 vs wild-type GT1a: 1.0 fold
[4]; mutant D168V
  fold change in EC50 vs wild-type GT1a: 1.4 fold
[4]; mutant D168Y
  fold change in EC50 vs wild-type GT1a: 1.0 fold
[4]; mutant R155I
  fold change in EC50 vs wild-type GT1a: 0.6 fold
[4]; mutant R155K
  fold change in EC50 vs wild-type GT1a: 0.7 fold
[4]; mutant R155K + L31M
  fold change in EC50 vs wild-type GT1a: 0.4 fold
[4]; mutant R155K + L31M + Y448H
  fold change in EC50 vs wild-type GT1a: 0.6 fold
[4]; mutant R155K + M28T
  fold change in EC50 vs wild-type GT1a: 0.2 fold
[4]; mutant R155K + M28T + Y448H
  fold change in EC50 vs wild-type GT1a: 0.3 fold
[4]; mutant R155K + Q30H + Y448H
  fold change in EC50 vs wild-type GT1a: 0.9 fold
[4]; mutant R155K + Q30R
  fold change in EC50 vs wild-type GT1a: 0.9 fold
[4]; mutant R155K + Y93H
  fold change in EC50 vs wild-type GT1a: 0.3 fold
[4]; mutant R155K + Y488H (first line, r20)
  fold change in EC50 vs wild-type GT1a: 0.7 fold
[4]; mutant R155K + Y488H (second line, r26)
  fold change in EC50 vs wild-type GT1a: 0.5 fold
[4]; mutant R155M
  fold change in EC50 vs wild-type GT1a: 0.4 fold
[4]; mutant R155S
  fold change in EC50 vs wild-type GT1a: 0.2 fold
[4]; mutant R155T
  fold change in EC50 vs wild-type GT1a: 0.2 fold
[4]; mutant R155W
  fold change in EC50 vs wild-type GT1a: 0.7 fold
[4]; mutant R155k + Q30H
  fold change in EC50 vs wild-type GT1a: 0.6 fold
[5]; mutant A156D
  fold change in EC50 vs wild-type GT1b: 0.4 fold
[5]; mutant A156G
  fold change in EC50 vs wild-type GT1b: 0.6 fold
[5]; mutant A156T
  fold change in EC50 vs wild-type GT1b: 0.9 fold
[5]; mutant A156V
  fold change in EC50 vs wild-type GT1b: 0.6 fold
[5]; mutant D168A
  fold change in EC50 vs wild-type GT1b: 1.0 fold
[5]; mutant D168E
  fold change in EC50 vs wild-type GT1b: 1.0 fold
[5]; mutant D168E + L31V + Y448H
  fold change in EC50 vs wild-type GT1b: 1.1 fold
[5]; mutant D168E + Y93H + Y448H
  fold change in EC50 vs wild-type GT1b: 0.9 fold
[5]; mutant D168E + Y448H
  fold change in EC50 vs wild-type GT1b: 0.7 fold
[5]; mutant D168G
  fold change in EC50 vs wild-type GT1b: 0.7 fold
[5]; mutant D168H
  fold change in EC50 vs wild-type GT1b: 1.7 fold
[5]; mutant D168H + C445F
  fold change in EC50 vs wild-type GT1b: 0.5 fold
[5]; mutant D168L + C445F
  fold change in EC50 vs wild-type GT1b: 0.3 fold
[5]; mutant D168N
  fold change in EC50 vs wild-type GT1b: 1.2 fold
[5]; mutant D168T
  fold change in EC50 vs wild-type GT1b: 1.4 fold
[5]; mutant D168V
  fold change in EC50 vs wild-type GT1b: 0.9 fold
[5]; mutant D168V + C445F
  fold change in EC50 vs wild-type GT1b: 0.7 fold
[5]; mutant D168V + L31V + Y448H
  fold change in EC50 vs wild-type GT1b: 0.6 fold
[5]; mutant D168V + Y93H + Y448H
  fold change in EC50 vs wild-type GT1b: 0.8 fold
[5]; mutant D168V + Y448H
  fold change in EC50 vs wild-type GT1b: 0.9 fold
[5]; mutant D168Y
  fold change in EC50 vs wild-type GT1b: 0.5 fold
[5]; mutant L31V + D168E
  fold change in EC50 vs wild-type GT1b: 1.6 fold
[5]; mutant L31V + D168V
  fold change in EC50 vs wild-type GT1b: 1.1 fold
[5]; mutant R155C
  fold change in EC50 vs wild-type GT1b: 0.8 fold
[5]; mutant R155G
  fold change in EC50 vs wild-type GT1b: 0.2 fold
[5]; mutant R155K
  fold change in EC50 vs wild-type GT1b: 0.6 fold
[5]; mutant R155L
  fold change in EC50 vs wild-type GT1b: 0.7 fold
[5]; mutant R155Q
  fold change in EC50 vs wild-type GT1b: 0.8 fold
[5]; mutant R155W
  fold change in EC50 vs wild-type GT1b: 0.5 fold
[5]; mutant Y93H + D168E
  fold change in EC50 vs wild-type GT1b: 1.3 fold
[5]; mutant Y93H + D168V
  fold change in EC50 vs wild-type GT1b: 1.0 fold
[6]
  Compound concentration able to induce replicon RNA 1-1.5 log drop: 1000 nM

## NC(=O)c1ncn([C@@H]2O[C@H](CO)[C@@H](O)[C@H]2O)n1 [Ribavirin, 1-β-D-ribofuranosyl-1H-1,2,4-Triazole-3-carboxamide, reference compound]
GT-1b Huh-lunet cells
  Antagonism Volume: −12 ± 9 nM^2
  Interaction: Additive
  Synergy Volume: 12 ± 8 nM^2
[1]
  CC50 at 3 days: > 88.8 µM
[7]
  steady-state plasma concentration: 6 to 11 µM
HCV 1b replicon system
  Antagonism Volume: −0.5 ± 0.1 nM^2
  Interaction: Moderate Synergy
  Synergy Volume: 61 nM^2 and 61 ± 0.5 nM^2
[3]; [10]
  susceptibility of mutants: full susceptibility
[3]; [11]
  susceptibility of mutants: susceptible
HCV genotype 1a replicon [8]
  EC50: 36.5 ± 17.5 µM
HCV genotype 1a replicon [9]
  Antagonism Volume: −43 nM^2% and −43 ± 20 nM^2%
  Synergy Volume: 1 ± 1 nM^2%
